According to patent US7452546B2, “Particles containing agricultural active ingredients” (priority 1997, dated 2008):
Where two headings read alike, the source gives them in different places.

Tests used:
plants = settings: cited from earlier work
[1] = Water saturation concentration of active ingredient; assay type: physicochemical; settings: room temperature stated for epoxiconazole
[2] = The Pesticide Manual, Eleventh Edition, 1997

CC1COC(Cn2cncn2)(c2ccc(Oc3ccc(Cl)cc3)cc2Cl)O1 (stereo not drawn) [difenoconazole]
phytotoxicity to plants (plants; [2]): can cause chlorosis in wheat

Fc1ccc([C@]2(Cn3cncn3)O[C@H]2c2ccccc2Cl)cc1 (racemic) [epoxiconazole]
water saturation concentration [1]: 7 ppm

CC(C)(C)C(O)(CCc1ccc(Cl)cc1)Cn1cncn1 (stereo not drawn) [tebuconazole]
water saturation concentration [1]: 32 ppm

CCCCC(O)(Cn1cncn1)c1ccc(Cl)cc1Cl (stereo not drawn) [hexaconazole]
phytotoxicity to plants (plants; in vivo): can cause damage to McIntosh apples

CC(C)(C)C(O)C(Oc1ccc(-c2ccccc2)cc1)n1cncn1 (stereo not drawn) [bitertanol]
phytotoxicity to plants (plants; [2]): can cause damage to fruit crops

CC1(C)CCC(Cc2ccc(Cl)cc2)C1(O)Cn1cncn1 (stereo not drawn) [metconazole]
phytotoxicity to plants (plants; in vivo): can cause stunting and yellowing of plants
